Where two headings read alike, the source gives them in different places.
Key:
Trp-p8 = molecular target: T1, Trp-p8 (Homo sapiens, UniProt Q7Z2W7, T58I); experiment: ATP viability assay with CHO/Trp-p8 cells at 37° C.; type: cell-based
T1 construct: expressed in transfected cells; host or cells: CHO (Chinese Hamster Ovary) cells
Description: (§1) Human Trp-p8 transfected CHO cells (referred to herein as CHO/Trp-p8) were generated for use in experiments of the present invention. Expression of Trp-p8 polypeptide in this transfectant and the absence of any endogenous expression in the non-transfected CHO was confirmed by western blot and immunofluorescence using a Trp-p8 specific antibody (GS2.20) as well as the calcium flux assay with Icilin (1-[2-hydroxyphenyl]-4-[3-nitrophenyl]-1,2,3,6-tetrahydropyrimidine-2-one) and menthol (2-isopropyl-5-methyl-cyclohexanol). Non-transfected CHO cells were used to establish the specificity of the effects of the compounds observed with CHO/Trp-p8.
This Example discloses an ATP viability assay suitable for screening for effective Trp-p8 agonists. The ATP viability assay described herein employs CHO cells expressing an exogenous Trp-p8 cDNA. This example further establishes that Trp-p8 agonists of the present invention are effective in decreasing the viability of Trp-p8 expressing cells.
The concentration of intracellular ATP declines very rapidly when metabolically active cells undergo necrosis and/or apoptosis. The ATP concentration and consequently the relative cell viability can be measured by established methods using commercially available reagents. In the agonist screening methodology disclosed herein, a compound that specifically decreases the viability of CHO/Trp-p8 cells is referred to as an agonist.
(§2) As a primary screen for efficacy and specificity for agonists, both the non-transfected CHO and CHO/Trp-p8 cells were exposed to 1 or 10 μM of test compounds in 1% dimethylsulfoxide (DMSO) or 1% DMSO (control) in a 96-well black walled, black-bottomed, cell-culture treated plate. DMSO was the solvent for all of the compounds tested. After 24-26 hours at 37° C., the cells were lysed and ATP concentration determined via a chemiluminescence assay using a commercially available reagent kit—Cell Titer-Glo (Promega; Madison, Wis.). […] (EC50 is defined herein as the agonist concentration at which there is a 50% reduction in relative cell viability).

Parent CHO = experiment: ATP viability assay with non-transfected (parent) CHO cells; type: cell-based, Chinese Hamster; conditions: Cricetulus griseus
Description: as §1, §2

[1] = Plasma concentrations in rats after a single oral dose; type: in vivo; conditions: rodents (FIG. 9A: rats), aqueous formulation, oral gavage
Description: (§3) FIGS. 9A and 9B are graphs depicting the plasma concentrations of several compounds, as a function of time and dose, in rats (FIG. 9A), and dogs (FIG. 9B) after a single oral dose. […] Blood was collected at the indicated time points, and analyzed for drug levels.

[2] = Plasma concentrations in dogs after a single oral dose; type: in vivo; conditions: Beagle dogs (FIG. 9B), aqueous formulation, oral gavage
Description: as §3

[3] = Sustained plasma levels after oral dosing (half-life, species not stated); type: in vivo; conditions: oral administration, read-out: t½ (sustained plasma levels) (converted)
Description: as §3

[4] = Table 5, Formula I-E, CHO/Trp-p8 cells, 24-26 hours at 37° C., 50% reduction in relative cell viability, read-out: EC50
[5] = ATP viability assay, read-out: CHO/Trp-p8 EC50

T1 sequence (Q7Z2W7 whole entry T58I): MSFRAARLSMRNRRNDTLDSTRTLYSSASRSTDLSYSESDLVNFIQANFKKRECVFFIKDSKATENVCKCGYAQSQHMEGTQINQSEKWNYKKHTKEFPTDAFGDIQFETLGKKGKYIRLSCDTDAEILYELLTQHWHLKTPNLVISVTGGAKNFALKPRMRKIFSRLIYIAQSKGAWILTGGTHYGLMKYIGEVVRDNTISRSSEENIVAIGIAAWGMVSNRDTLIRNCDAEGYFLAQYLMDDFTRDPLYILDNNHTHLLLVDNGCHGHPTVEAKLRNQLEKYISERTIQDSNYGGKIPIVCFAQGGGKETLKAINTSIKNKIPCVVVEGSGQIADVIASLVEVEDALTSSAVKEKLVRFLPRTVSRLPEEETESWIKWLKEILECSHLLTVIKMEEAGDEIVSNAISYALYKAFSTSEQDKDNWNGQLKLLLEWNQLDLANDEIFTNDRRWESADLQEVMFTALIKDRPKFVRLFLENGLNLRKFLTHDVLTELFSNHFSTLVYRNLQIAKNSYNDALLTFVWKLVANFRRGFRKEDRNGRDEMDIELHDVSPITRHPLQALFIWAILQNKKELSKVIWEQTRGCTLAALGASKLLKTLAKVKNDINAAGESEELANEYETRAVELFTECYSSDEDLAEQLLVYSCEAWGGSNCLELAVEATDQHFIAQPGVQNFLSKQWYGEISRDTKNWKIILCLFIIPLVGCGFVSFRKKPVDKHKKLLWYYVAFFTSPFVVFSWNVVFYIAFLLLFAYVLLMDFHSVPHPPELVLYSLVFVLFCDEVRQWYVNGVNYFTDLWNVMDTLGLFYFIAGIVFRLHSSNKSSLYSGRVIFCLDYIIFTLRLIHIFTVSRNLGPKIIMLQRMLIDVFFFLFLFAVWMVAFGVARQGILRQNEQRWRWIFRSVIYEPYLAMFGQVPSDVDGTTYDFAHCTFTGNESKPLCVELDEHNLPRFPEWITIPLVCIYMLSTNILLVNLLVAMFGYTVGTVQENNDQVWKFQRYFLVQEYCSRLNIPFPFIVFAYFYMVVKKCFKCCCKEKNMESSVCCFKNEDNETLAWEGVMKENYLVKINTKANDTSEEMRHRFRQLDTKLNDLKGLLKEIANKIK

Compound | EC50 (Trp-p8; [4]) [µM] | other results
CSc1ccc2c(c1)n(CCN)c(=O)n2C(=O)[C@@H]1C[C@H](C)CC[C@H]1C(C)C [Compound 42, 3-(2-Amino-ethyl)-1-(2-isopropyl-5-methyl-cyclohexanecarbonyl)-5-methylsulfanyl-1,3-dihydro-benzoimidazol-2-one] | < 0.02 | –
CC(C)[C@@H]1CC[C@@H](C)C[C@H]1C(=O)n1c(=O)n(CCN)c2cc([S+](C)[O-])ccc21 (some centres unmarked) [Compound 43, 3-(2-Amino-ethyl)-1-(2-isopropyl-5-methyl-cyclohexanecarbonyl)-5-methylsulfinyl-1,3-dihydro-benzoimidazol-2-one] | < 0.02 | –
CCN(CC)CCNC(=O)c1ccc2c(c1)n(CCN)c(=O)n2C(=O)[C@@H]1C[C@H](C)CC[C@H]1C(C)C [Compound 44, 3-(2-Amino-ethyl)-1-(2-isopropyl-5-methylcyclohexanecarbonyl)-2-oxo-2,3-dihydro-1H-benzoimidazole-5-carboxylic acid (2-diethylamino-ethyl)amide] | < 0.02 | –
CC(C)[C@@H]1CC[C@@H](C)C[C@H]1C(=O)n1c(=O)n(C[C@@H](C)N)c2ccccc21 [Compound 45, 1-(2-Amino-2-(R)-methylethyl)-3-(2-isopropyl-5-methylcyclohexanecarbonyl)-1,3-dihydro-benzoimidazol-2-one] | < 0.02 | –
C#CCOc1ccc2c(c1)n(CCN)c(=O)n2C(=O)[C@@H]1C[C@H](C)CC[C@H]1C(C)C [Compound 46] | < 0.02 | –
COCCNC(=O)c1ccc2c(c1)n(CCN)c(=O)n2C(=O)[C@@H]1C[C@H](C)CC[C@H]1C(C)C [Compound 49] | < 0.02 | –
CC(C)[C@@H]1CC[C@@H](C)C[C@H]1C(=O)n1c(=O)n(CCN)c2ccccc21 [Compound 50, 1-(2-Aminoethyl)-3-(2-isopropyl-5-methylcyclohexanecarbonyl)-1,3-dihydro-benzoimidazol-2-one] | < 0.02 | –
CC(C)[C@@H]1CC[C@@H](C)C[C@H]1C(=O)n1c(=O)n(CCN)c2cc3ccccc3cc21 [Compound 51] | < 0.02 | –
CC(C)[C@@H]1CC[C@@H](C)C[C@H]1C(=O)n1c(=O)n(CCN)c2cc(C(=O)NCCO)ccc21 [Compound 52] | < 0.02 | –
CC(C)[C@@H]1CC[C@@H](C)C[C@H]1C(=O)n1c(=O)n(CCN)c2cnccc21 [Compound 54] | 0.021 to 0.05 | –
CCN(CC)CCNC(=O)c1cccc2c1n(CCN)c(=O)n2C(=O)[C@@H]1C[C@H](C)CC[C@H]1C(C)C [Compound 55] | 0.021 to 0.05 | –
CC(C)[C@@H]1CC[C@@H](C)C[C@H]1C(=O)n1c(=O)n(CCN)c2cc(C(=O)Nc3ccncc3)ccc21 [Compound 56] | 0.021 to 0.05 | –
CC(C)[C@@H]1CC[C@@H](C)C[C@H]1C(=O)n1c(=O)n(CCN)c2ncccc21 [Compound 57] | 0.021 to 0.05 | –
CC(C)[C@@H]1CC[C@@H](C)C[C@H]1C(=O)n1c(=O)n(CCCN)c2ccccc21 [Compound 58] | 0.021 to 0.05 | –
CC(C)[C@@H]1CC[C@@H](C)C[C@H]1C(=O)n1c(=O)n(CCN)c2cc(C(=O)Nc3ccccc3)ccc21 [Compound 59] | 0.021 to 0.05 | –
CC(C)[C@@H]1CC[C@@H](C)C[C@H]1C(=O)n1c(=O)n(CCN)c2ccc(C(F)(F)F)cc21 [Compound 61] | 0.021 to 0.05 | –
CC(C)[C@@H]1CC[C@@H](C)C[C@H]1C(=O)n1c(=O)n(CCN)c2ccncc21 [Compound 62] | 0.021 to 0.05 | –

Compound | EC50 (Trp-p8; [4]) [µM] | other results
CC(C)[C@@H]1CC[C@@H](C)C[C@H]1C(=O)n1c(=O)n(CCN)c2cc(C(=O)NCc3ccccc3)ccc21 [Compound 63] | 0.021 to 0.05 | –
CC(C)[C@@H]1CC[C@@H](C)C[C@H]1C(=O)n1c(=O)n(CCN)c2cc(C(=O)N3CCOCC3)ccc21 [Compound 64] | 0.021 to 0.05 | –
CC(C)[C@@H]1CC[C@@H](C)C[C@H]1C(=O)n1c(=O)n(CCN)c2cc(OCC(=O)c3ccccc3)ccc21 [Compound 65] | 0.021 to 0.05 | –
CNCCn1c(=O)n(C(=O)[C@@H]2C[C@H](C)CC[C@H]2C(C)C)c2ccccc21 [Compound 66] | 0.021 to 0.05 | –
CCCCOc1ccc2c(c1)n(CCN)c(=O)n2C(=O)[C@@H]1C[C@H](C)CC[C@H]1C(C)C [Compound 67] | 0.051 to 0.1 | –
CC(C)[C@@H]1CC[C@@H](C)C[C@H]1C(=O)n1c(=O)n(CCN)c2cc(C(=O)N(C)c3ccccc3)ccc21 [Compound 68] | 0.051 to 0.1 | –
CCOC(=O)N1CCN(C(=O)c2ccc3c(c2)n(CCN)c(=O)n3C(=O)[C@@H]2C[C@H](C)CC[C@H]2C(C)C)CC1 [Compound 69] | 0.051 to 0.1 | –
CCN(CC)C(=O)c1ccc2c(c1)n(CCN)c(=O)n2C(=O)[C@@H]1C[C@H](C)CC[C@H]1C(C)C [Compound 70] | 0.051 to 0.1 | –
CC(C)[C@@H]1CC[C@@H](C)C[C@H]1C(=O)n1c(=O)n(CCN)c2cc(C(=O)NCCc3ccccc3)ccc21 [Compound 71] | 0.051 to 0.1 | –
CC(C)[C@@H]1CC[C@@H](C)C[C@H]1C(=O)n1c(=O)n(CCN)c2cc(C(=O)N[C@@H](CO)[C@@H](O)c3ccccc3)ccc21 [Compound 72] | 0.051 to 0.1 | –
CC(C)[C@@H]1CC[C@@H](C)C[C@H]1C(=O)n1c(=O)n(CCN)c2cc(C(=O)NCC(N)=O)ccc21 [Compound 73] | 0.051 to 0.1 | –
CC(C)[C@@H]1CC[C@@H](C)C[C@H]1C(=O)n1c(=O)n(CCN)c2cc(C(=O)NC(CO)CO)ccc21 [Compound 74] | 0.051 to 0.1 | –
CC(C)[C@@H]1CC[C@@H](C)C[C@H]1C(=O)n1c(=O)n(CCN)c2cc(OCc3ccccc3)ccc21 [Compound 75] | 0.051 to 0.1 | –
CC(C)[C@@H]1CC[C@@H](C)C[C@H]1C(=O)n1c(=O)n(CCCCN)c2ccccc21 [Compound 76] | 0.051 to 0.1 | –
CC(C)[C@@H]1CC[C@@H](C)C[C@H]1C(=O)Nc1cc(-c2ccccc2)nn1CCN [III] | – | EC50 (Trp-p8; [5]): 0.01 µM; EC50 (Parent CHO): > 10 µM; exposure after a single oral administration [1]: prolonged exposure; exposure after a single oral administration [2]: prolonged exposure; half-life [3]: ~9 h
CC(C)[C@@H]1CC[C@@H](C)C[C@H]1C(=O)n1c(=O)n(CCN)c2ccccc21 [II] | – | EC50 (Trp-p8; [5]): 0.01 µM; EC50 (Parent CHO): > 10 µM; exposure after a single oral administration [1]: prolonged exposure; exposure after a single oral administration [2]: prolonged exposure; half-life [3]: ~9 h

— US7741355B2, “Small-molecule modulators of TRP-p8 activity” (Dendreon Corporation, priority 2006, dated 2010)
